Where two headings read alike, the source gives them in different places.
Assays:
[1] = system: MCF7 human breast cancer cell line; experiment: MTT cytotoxicity assay on MCF7; conditions: read-out: MCF7 IC50
Experimental: (§1) MCF7 and NIH3T3 were grown in Dulbecco’s Modified Eagle Medium (DMEM, Sigma-Aldrich, USA); supplemented with 10% fetal bovine serum (Capricorn Scientific, Ebsdorfergrund, Germany) and 1% antibiotics (100 mg/mL of streptomycin and 100 units of penicillin, Sigma-Aldrich, Taufkirchen, Germany); and incubated until confluent at 37 °C in a humidified incubator with a 5% CO2 atmosphere.
(§2) The cytotoxicity assays were performed using the human MCF7, mouse fibroblast NIH3T3, and human non-tumorigenic mammary epithelial MCF12A cell lines in accordance with the MTT procedure previously reported [37, 38].
(§3) The compounds were dissolved in dimethyl sulfoxide (DMSO, AppliChem, Darmstadt, Germany) and diluted to the required concentrations with fresh medium, while the solvent control was prepared with a medium containing 0.1% DMSO. The half-maximal inhibitory concentrations (IC50) of the compounds were determined by calculating the cell viability via the MTT assay. The cells were harvested and counted using an automated cell counter (LUNA II, Logos Biosystems, Gyeonggi, Republic of Korea). […] Following a 24 h incubation period, the MTT solution was added to the wells to a final concentration of 5 mg/mL. The cells were incubated for a 3 h period, after which point the medium was removed and 100 µL of DMSO was added. The absorbances were measured at 540 nm using a MultiMode Plate Reader (BioTek, HTX Synergy, Winooski, Vermont, USA).

[2] = system: NIH3T3 mouse fibroblast cell line; experiment: MTT cytotoxicity assay on NIH3T3; conditions: read-out: NIH3T3 IC50
Experimental: as §1, §2, §3

Aromatase (CYP19A) [3] = biological target: T1, Aromatase (CYP19A) (Homo sapiens, UniProt P11511); conditions: read-out: Aromatase IC50; means of quartet assays
T1 sequence (P11511 1-503): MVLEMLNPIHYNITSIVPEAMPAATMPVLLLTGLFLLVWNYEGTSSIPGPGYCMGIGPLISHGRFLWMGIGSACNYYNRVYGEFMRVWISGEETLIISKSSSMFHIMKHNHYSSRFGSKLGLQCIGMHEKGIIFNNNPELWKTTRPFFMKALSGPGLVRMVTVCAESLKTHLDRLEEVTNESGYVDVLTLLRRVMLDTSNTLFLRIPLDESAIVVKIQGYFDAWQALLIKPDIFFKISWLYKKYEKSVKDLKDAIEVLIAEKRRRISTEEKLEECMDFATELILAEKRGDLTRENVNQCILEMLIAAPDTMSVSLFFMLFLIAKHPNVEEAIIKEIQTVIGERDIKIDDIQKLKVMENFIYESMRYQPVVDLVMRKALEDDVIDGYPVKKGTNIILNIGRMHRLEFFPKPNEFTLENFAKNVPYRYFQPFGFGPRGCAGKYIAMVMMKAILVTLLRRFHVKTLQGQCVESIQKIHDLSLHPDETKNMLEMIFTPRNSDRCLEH

Aromatase (CYP19A) [4] = biological target: T1, Aromatase (CYP19A); experiment: biochemical
[5] = system: MCF12A non-tumorigenic mammary cell line; experiment: MTT cell viability on MCF12A; format: cell-based, human; conditions: concentration range 1 mM–1 nM, 24 h
Experimental: This fact is of crucial importance to the effective and safe treatment of cancer since selectivity refers to the ability of a drug to target cancer cells while minimizing the harm to healthy cells. This targeted approach has the potential to yield more efficacious therapies with a reduced incidence of adverse effects, thereby enhancing patient outcomes.
MCF12A was maintained in DMEM/Ham’s F12 (1:1); supplemented with 5% horse serum, 20 ng/mL of human epidermal growth factor, 0.01 mg/mL of bovine insulin, 500 ng/mL of hydrocortisone, and 100 U/mL (50 µg/mL) of penicillin–streptomycin; and maintained at 37 °C in a humidified atmosphere of 5% CO2.

Row | Compound | IC50 (Aromatase (CYP19A) [4]) | IC50 ([1]; MTT, 24 h, means of quartet assays) | IC50 ([2]; MTT, 24 h, healthy model, means of quartet assays) | IC50 (Aromatase (CYP19A) [3]) | IC50 ([1]; Homo sapiens, MCF7, 24 h) | IC50 ([2]; Mus musculus, NIH3T3, 24 h) | effect on MCF12A cell viability [5]
1 | 4-methyl-N-(2-morpholinethyl)benzenesulfonamide [Compound 16] |  | 19.6 ± 0.678 µM | 50.9 ± 1.51 µM | 0.16 ± 0.006 µM |  |  | 
2 | O=S(=O)(NCCc1ccccn1)c1ccccc1 [Compound 1, N-(2-(pyridin-2-yl)ethyl)benzenesulfonamide] |  |  |  |  | 7.51 ± 0.296 µM | 46.9 ± 1.99 µM | 
3 | Cc1ccc(S(=O)(=O)NCCc2ccccn2)cc1 [Compound 2, 4-methyl-N-(2-(pyridin-2-yl)ethyl)benzenesulfonamide] | 0.248 ± 0.01 µM |  |  |  | 15.4 ± 0.356 µM | 51.4 ± 1.74 µM | 
4 | Cc1ccc(S(=O)(=O)Nc2ccccn2)cc1 [Compound 3, 4-metyl-N-(pyridin-2-yl)benzenesulfonamide] | 0.035 ± 0.001 µM |  |  |  | 2.68 ± 0.104 µM | 64.3 ± 1.83 µM | 
5 | Cc1ccc(S(=O)(=O)Nc2ccc(Cl)cn2)cc1 [Compound 4, N-(5-chloropyridin-2-yl)-4-methylbenzenesulfonamide] | > 100 µM |  |  |  | > 100 µM | > 100 µM | 
6 | O=S(=O)(NCCN1CCCCC1)c1ccccc1 [Compound 9, N-(2-(piperidin-1-yl)ethyl)benzenesulfonamide] |  |  |  |  | 3.29 ± 0.119 µM | 58.2 ± 0.952 µM | no effects
7 | Cc1ccc(S(=O)(=O)NCCN2CCCCC2)cc1 [Compound 11] |  |  |  |  | 43.6 ± 1.86 µM | 29.6 ± 0.812 µM | 
8 | CN1CCCC1CCNS(=O)(=O)c1ccccc1 (stereo not drawn) [Compound 13, N-(2-(1-methylpyrrolidin-2-yl)ethyl)benzenesulfonamide] |  |  |  |  | 8.06 ± 0.319 µM | 49.6 ± 1.73 µM | 
9 | O=S(=O)(NCCN1CCOCC1)c1ccccc1 [Compound 15, N-(2-morpholinethyl)benzenesulfonamide] |  |  |  |  | 12.4 ± 0.417 µM | 39.3 ± 0.995 µM | 
10 | COc1cccc2c1C(=O)c1c(O)c3c(c(O)c1C2=O)C[C@@](O)(C(=O)CO)C[C@@H]3O[C@H]1C[C@H](N)[C@H](O)[C@H](C)O1 [Doxorubicin, reference compound] |  |  |  |  |  | > 100 µM | 

The next lines start with results.

Row | IC50 (Aromatase (CYP19A) [4]) | Compound | IC50 ([1]; MTT, 24 h, means of quartet assays) | IC50 ([2]; MTT, 24 h, healthy model, means of quartet assays) | IC50 (Aromatase (CYP19A) [3]) | IC50 ([1]; Homo sapiens, MCF7, 24 h) | IC50 ([2]; Mus musculus, NIH3T3, 24 h) | effect on MCF12A cell viability [5]
11 | > 100 µM | Cc1ccc(S(=O)(=O)Nc2ncc(Cl)cc2Cl)cc1 [Compound 5, N-(3,5-dichloropyridin-2-yl)-4-methylbenzenesulfonamide] |  |  |  | > 100 µM | 76.6 ± 1.13 µM | 
12 | > 100 µM | O=S(=O)(Cc1ccccc1)Nc1ncc(Cl)cc1Cl [Compound 6, N-(3,5-dichloropyridin-2-yl)-1-phenylmethanesulfonamide] |  |  |  | 25.3 ± 0.945 µM | > 100 µM | 
13 | > 1000 µM | O=S(=O)(NC1CCN(Cc2ccccc2)CC1)c1ccccc1 [Compound 7, N-(1-benzylpiperidin-4-yl)benzenesulfonamide] |  |  |  | 28.5 ± 0.514 µM | 44.3 ± 1.05 µM | 
14 | > 1000 µM | Cc1ccc(S(=O)(=O)NC2CCN(Cc3ccccc3)CC2)cc1 [Compound 8, N-(1-benzylpiperidin-4-yl)-4-methylbenzenesulfonamide] |  |  |  | > 100 µM | > 100 µM | 
15 | 0.052 ± 0.002 µM | O=S(=O)(Cc1ccccc1)NCCN1CCCCC1 [Compound 10, 1-phenyl-N-(2-(piperidin-1-yl)ethyl)methanesulfonamide] |  |  |  | 6.2 ± 0.258 µM | 30.9 ± 1.03 µM | 
16 | > 1000 µM | Cc1ccc(S(=O)(=O)NCCCN2CCCC2)cc1 [Compound 12, 4-methyl-N-(3-(pyrrolidin-1-yl)propyl)benzenesulfonamide] |  |  |  | 32.1 ± 1.17 µM | > 100 µM | 
17 | 0.051 ± 0.001 µM | Cc1ccc(S(=O)(=O)NCCC2CCCN2C)cc1 (stereo not drawn) [Compound 14, 4-methyl-N-(2-(1-methylpyrrolidin-2-yl)ethyl)benzenesulfonamide] |  |  |  | 10.5 ± 0.477 µM | 56.1 ± 1.93 µM | 
18 | 0.206 ± 0.009 µM | O=S(=O)(Cc1ccccc1)NCCN1CCOCC1 [Compound 17, N-(2-morpholinoethyl)-1-phenylmethanesulfonamide] |  |  |  | 14.6 ± 0.522 µM | 43.1 ± 1.03 µM | 

Source: paper PMC12389619, “Discovery and Evaluation of Novel Sulfonamide Derivatives Targeting Aromatase in ER+ Breast Cancer” (Pharmaceuticals, 2025)
